Results from article PMC9496228, “Plasma Clearance of Intravenously Infused Adrenomedullin in Rats with Acute Renal Failure” (Biomolecules, 2022).
Read-outs that look alike come from different tables or passages of the source.

Columns and labels:
[1] = Human adrenomedullin 60-min continuous intravenous infusion study in rats, plasma pharmacokinetics; type: in vivo, rat; conditions: mean ± SD; for level at time molar at 1 h / half-life / clearance: male, Lewis, rat, in vivo; for level at time molar at 1 h: 0.1 ug/kg/min, hAM iv infusion 0.1 µg/kg/min, read-out: Plasma AM concentration at 60 min after initiating treatment (AM C60); for half-life: read-out: T1/2β, half-life in the terminal phase after stopping infusion; for clearance: hAM iv infusion 0.1 µg/kg/min for 60 min, dose divided by AUC0–60, read-out: CLtotal, total systemic clearance
Procedure: Renal dysfunction was induced by subcutaneous injection of 3 mg/kg mercury chloride (1 mg/mL saline) to rats (RD-Ag, n = 7) on the day before the adrenomedullin pharmacokinetic study. Control rats were treated with saline (normal renal function, NF, n = 5). Twenty-four hours after injection of mercury chloride (4 h before hAM administration), blood was collected from the tail vein of rats and serum creatinine (sCr) was measured using DRI-CHEM (FUJIFILM, Tokyo, Japan) to confirm the severity of renal damage. After the hAM administration study, the lungs and kidneys were removed from each group of rats, immersed in RNAlater (Thermo Fisher Scientific, Waltham, MA, USA), and frozen at −30 °C for later analysis.
Rats were subjected to cannulation at the beginning as described below. After laparotomy through a midline abdominal incision, the bilateral renal artery and vein of the rat were exposed and blocked with vascular clips to develop another model of renal dysfunction (RD-Bl, n = 3). Immediately after the vascular blockade, the rats were studied for hAM infusion experiment.
Rats under isoflurane anesthesia were placed on a heated surgical table in the supine position and subjected to cannulation (PE 50, Becton, Dickinson and Company, Franklin Lakes, NJ, USA) of the carotid artery and jugular vein. Human AM was dissolved in 20% mannitol to a concentration of 300 ng/mL and continuously administered at 0.1 µg/kg/min for 60 min via venous cannula using an infusion pump (KDS-100, KD Scientific, Holliston, MA, USA). After hAM administration had begun, 0.6 mL of whole blood was drawn from the arterial cannula at 0, 5, 10, 20, 30, 45, 60, 61.5, 63, 65, 70, 75, 80, and 90 min.
(§1) To measure plasma hAM concentrations, whole blood was collected with 2 mg/mL EDTA-2Na and 500 Kallikrein Inhibitory Units (KIU)/mL of aprotinin. Plasma was obtained by centrifugation at 10,000× g for 2 min at 4 °C and stored at −30 °C until the assays were performed. Plasma hAM concentration was measured using an automated immunoassay system (AIA-System, Tosoh Corporation, Tokyo, Japan) that was described previously, including intra- and inter-assay variations. This system is a one-step fluorescence sandwich immunoassay for the detection of human AM using two monoclonal antibodies against human AM(12–25) and AM(46–52).
Pharmacokinetic parameters in rats were calculated from individual plasma AM concentration vs time curves during and after 1 h intravenous infusion of hAM based on standard procedures. The area under the plasma concentration vs time curve (AUC0–60) was calculated during the first 60 min using a linear trapezoidal method, and the total systemic clearance (CLtotal) was calculated as the dose administered divided by AUC0–60. A plot of plasma concentration vs time after stopping hAM infusion yielded a biexponential curve. The elimination rate constant and half-life (T1/2β) in the terminal phase were calculated from individual plasma AM concentration vs time curves with a two-compartment model using the Solver tool in Microsoft Excel to minimize the sum of the squared residual values. Weighting was set to the standard deviation of plasma concentrations measured at each blood sampling point.

[2] = Human adrenomedullin intraperitoneal administration study in E-RAMP2 KO and control mice, plasma concentration; conditions: mouse, in vivo, ip, 50 ug/kg, mean ± SD, read-out: Plasma AM concentration; for level at time molar at 10 min: 10 min after 50 μg/kg hAM intraperitoneally; for level at time molar at 0.5 h: 30 min after 50 μg/kg hAM intraperitoneally
Procedure: E-RAMP2 KO mice (aged 9–10 weeks) were generated by intraperitoneal administration of 75 mg/kg tamoxifen suspended in corn oil (20 mg/mL) once daily for five consecutive days. Mice of the same strain treated only with corn oil were used as a control group. Three to four mice were prepared for each blood collection point.
as §1

[3] = biological target: AM receptor (CLR and RAMP2 or -3 heterodimeric receptors); conditions: read-out: equilibrium dissociation constant for its receptor (Kd); cited from earlier work
From the text: Therefore, the administered AM appears to bind almost exclusively to its receptor and undergo receptor-mediated clearance. The AM receptor is made up of CLR and RAMP2 or -3 heterodimeric receptors. RAMP2 or -3 is a molecular chaperone required for CLR transport to the cell surface as well as for specifying the affinity of CLR for AM [35]. The distribution of ^125I-labeled AM in ...

[4] = RD-Bl rats (bilateral renal blood flow blockage, n = 3)

For `CC[C@H](C)[C@H](NC(=O)[C@H](CCC(N)=O)NC(=O)[C@H](Cc1c[nH]cn1)NC(=O)[C@H](C)NC(=O)[C@H](CC(C)C)NC(=O)[C@H](CCCCN)NC(=O)[C@H](CCC(N)=O)NC(=O)[C@@H](NC(=O)[C@@H](NC(=O)[C@@H]1CSSC[C@H](NC(=O)CNC(=O)[C@H](Cc2ccccc2)NC(=O)[C@H](CO)NC(=O)[C@H](CCCNC(=N)N)NC(=O)[C@H](CC(C)C)NC(=O)CNC(=O)[C@H](CCC(N)=O)NC(=O)[C@H](Cc2ccccc2)NC(=O)[C@H](CC(N)=O)NC(=O)[C@H](CC(N)=O)NC(=O)[C@H](CCSC)NC(=O)[C@H](CO)NC(=O)[C@H](CCC(N)=O)NC(=O)[C@H](CCCNC(=N)N)NC(=O)[C@@H](N)Cc2ccc(O)cc2)C(=O)N[C@@H](CCCNC(=N)N)C(=O)N[C@@H](Cc2ccccc2)C(=O)NCC(=O)N[C@@H]([C@@H](C)O)C(=O)N1)[C@@H](C)O)C(C)C)C(=O)N[C@@H](Cc1ccc(O)cc1)C(=O)N[C@@H](CCC(N)=O)C(=O)N[C@@H](Cc1ccccc1)C(=O)N[C@H](C(=O)N[C@@H](CC(=O)O)C(=O)N[C@@H](CCCCN)C(=O)N[C@@H](CC(=O)O)C(=O)N[C@@H](CCCCN)C(=O)N[C@@H](CC(=O)O)C(=O)N[C@@H](CC(N)=O)C(=O)N[C@H](C(=O)N[C@@H](C)C(=O)N1CCC[C@H]1C(=O)N[C@@H](CCCNC(=N)N)C(=O)N[C@@H](CO)C(=O)N[C@@H](CCCCN)C(=O)N[C@H](C(=O)N[C@@H](CO)C(=O)N1CCC[C@H]1C(=O)N[C@@H](CCC(N)=O)C(=O)NCC(=O)N[C@@H](Cc1ccc(O)cc1)C(N)=O)[C@@H](C)CC)C(C)C)[C@@H](C)O` [AM, Human adrenomedullin], the “T1/2β, half-life in the terminal phase after stopping infusion” value ([1]; RD-Ag rats (mercury chloride, n = 7), after 60-min iv infusion of hAM 0.1 µg/kg/min, two-compartment model) was 22.2 ± 9.8 min, the level at time molar at 1 h [1, 4] was 0.0781 ± 0.0105 nM and the half-life ([1]; iv, 0.1 µg/kg/min, NF rats (n = 5), after 60-min iv infusion of hAM 0.1 µg/kg/min, two-compartment model) was 15 ± 1.4 min. The clearance ([1]; iv, 0.1 µg/kg/min, NF rats (n = 5)) was 752 ± 230 mL/min/kg, the level at time molar at 1 h ([1]; iv, NF rats (n = 5)) was 0.049 ± 0.0136 nM and the clearance ([1]; iv, 0.1 µg/kg/min, RD-Ag rats (mercury chloride, n = 7)) was 192 ± 102 mL/min/kg. For the same molecule, the level at time molar at 1 h ([1]; iv, RD-Ag rats (mercury chloride, n = 7)) was 0.162 ± 0.0887 nM, the half-life ([1]; RD-Bl rats (bilateral renal blood flow blockage, n = 3), after 60-min iv infusion of hAM 0.1 µg/kg/min, two-compartment model) was 16.7 ± 1.8 min and the clearance [1, 4] was 450 ± 68.9 mL/min/kg. The level at time molar at 10 min ([2]; E-RAMP2 KO mice (n = 3–4)) was 3.98 ± 0.381 nM, the level at time molar at 0.5 h ([2]; E-RAMP2 KO mice (n = 3–4)) was 0.759 ± 0.234 nM and the level at time molar at 10 min ([2]; control mice (Cont, n = 3–4)) was 1.07 ± 0.595 nM. For the same molecule, the level at time molar at 0.5 h ([2]; control mice (Cont, n = 3–4)) was 0.118 ± 0.0737 nM and the Kd [3] was 0.3 to 0.6 nM.
